Reference: article PMC11407620, “Repurposing auranofin and meclofenamic acid as energy-metabolism inhibitors and anti-cancer drugs” (PLOS ONE, 2024)

How the values were obtained:
HeLa cells [1] = test: Cell invasiveness, Boyden chamber; type: cell-based; conditions: Homo sapiens, MA 10 μM, 24 h
Experimental: The 96-multiwell Boyden chambers (Merck Millipore, MA, USA) assay was performed for cellular invasiveness detection. Cancer cells (5 × 10^4 cells/well) were re-suspended in free-serum DMEM and placed in the upper Boyden chamber compartment. Free-serum DMEM was also placed in the lower compartment of the chamber. Afterwards, the Boyden chamber was placed at 37°C and 95% air/5% CO2 for 24 h. Invasive cancer cells within the lower chamber compartment were detected by using the calcein-AM (60 nM, 1 h) assay at 37°C. Calcein-fluorescence was measured at λexcitation = 485 nm and λemission = 520 nm in a Nunclon microplate reader (Roskilde, Denmark).
S1 Figure. Cancer invasiveness assay in metastatic cancer cells exposed to MA (A) and perhexiline (B) for 24 h. All cancer cell invasiveness was compared with MDA-MB-231 cells, which are cancer cells with the highest invasiveness ability. n=3; *P < 0.05 vs. MDA-MB-231 non-treated cells.

Rat Heart Mitochondria = test: Oxygen consumption of isolated mitochondria; type: biochemical; conditions: 5 mM Glutamate/5 mM Malate
Experimental: Rat liver (RLM) and heart (RHM) mitochondria were isolated as described previously by differential centrifugation.
Respiration of AS-30D, liver and heart mitochondria (1 mg protein/mL) was assayed oxygraphically with a Clark-type O2 electrode in KME (120 mM KCl, 20 mM Mops, 1 mM EGTA) buffer pH 7.2 plus 2 mM KH2PO4, and different oxidizable substrates (as indicated in Results). For state 3 respiration, 600 nmol ADP were added. Mitochondria were incubated at 37°C with Aur and MA for 30–60 s before substrates were added. At the end of each respiratory measurement, dithionite was added to get the chemical zero oxygen signal.

HeLa cells [2] = test: ROS production and total content (DHE); type: cell-based, human; conditions: Aur 1.7 μM, 24 h
Experimental: Fig 3 Radical oxygen species in Aur-treated cancer cells. (A) ROS production and (B) ROS total content in DHE loaded-metastatic cancer cells. The 100% fluorescence corresponds to 1.9 ± 0.26 (n = 3); 1.2 ± 0.09 (n = 3); and 0.64 (n = 2) fluorescence arbitrary units for HeLa, MDA-MB-231 and U373 cells, respectively. The Aur concentration added was 1.7, 0.8 and 0.6 μM for HeLa, MDA-MB-231 and U373 cells, respectively. The contents of ROS shown were determined at the 120 min end-point, after adding 25 μM DHE. *p < 0.05 vs. Control (Non- treated cells).

HeLa cells [3] = test: Mitophagy assay (MTG/LTR co-localization); type: cell-based, human; conditions: Aur 1.7 μM, 24 h
Experimental: The selective removal of damaged/inhibited mitochondria by autophagosomes and lysosomes (i.e., mitophagy) was detected by using an EVOS epifluorescence cell imaging microscope (ThermoFisher, Waltham MA, USA). HeLa cells (5 × 10^4 cells/mL) were cultured in 2 mL DMEM in glass bottom culture dishes and exposed to Aur for 24 h. HeLa cells were incubated with 400 nM Hoechst (Bis-Benzimide H 33342 trihydrochloride), 500 nM MitoTracker-Green FM and 500 nM LysoTracker-Red for 30 min at 37°C for nuclei, mitochondria and lysosome detection, respectively. Afterwards, cells were washed, resuspended with DMEM medium without red phenol and placed in the EVOS microscope for their analysis.
To establish which cell processes were associated to Aur-dependent OxPhos inhibition, mitochondrial digestion (mitophagy) and ROS production were assayed in HeLa cells (Fig 2). Mitophagy is the selective removal of dysfunctional or damaged mitochondria by autophagosomes, which is triggered by mitochondrial inner membrane depolarization and the generation of reactive oxygen species (ROS). Mitophagy was assessed by the number of lysosomes and their co-localization with mitochondria in LTR/MTG-loaded cells by epifluorescence microscopy. […] In addition, dead cells were previously removed for the dye loading procedure, thus discarding unspecific drug effects on mitophagy. […]

Glioblastoma U373 cells = test: Cell proliferation, 24 h drug exposure; type: cell-based, human
Experimental: All metastatic (breast MDA-MB231, MDA-MB468, cervix HeLa, prostate PC3, colorectal HCT116, COLO205, glioblastoma U373), low-metastatic (breast MCF-7) cancer and non-cancer (fibroblast 3T3, cardiomyocytes H9C2) cell lines (American Type Culture Collection, Rockville, MD, USA) used in this study were cultured in Petri dishes in 20 mL of Dulbecco’s Modified Eagle’s Medium (DMEM, Sigma, MO, USA) supplemented with 10% fetal bovine serum (Biowest, Mexico) and 10,000 U penicillin/streptomycin (Sigma-Aldrich, MO, USA). […] For growth and maintenance, cells were incubated in 5% CO2/95% air at 37°C and kept until 80–90% of confluence was reached. Then, cells were harvested, washed by centrifugation and resuspended in Krebs-Ringer buffer (KR, 125 mM NaCl, 5 mM KCl, 25 mM Hepes, 1 mM MgCl2, 1 mM KH2PO4, 1.4 mM CaCl2, pH 7.4) for further use. For experimentation, cancer cells (3–5 x 10^6 cells) were cultured in DMEM (with 25 mM glucose) for 24 h in the absence of drugs. Afterwards, old-medium was replaced with fresh DMEM medium (with 25 mM glucose) in the absence (control, non-treated cells) or in the presence of logarithmic concentrations of Aur and MA for 24 h more, under the same culture conditions described above. Viability of cultured cells was determined by the trypan blue exclusion assay. The protein concentration was determined by the Lowry method.
For cell proliferation in the presence of drugs, cancer cells (20 x 10^3 cells/well) were grown in 96-well plates containing DMEM (Sigma-Aldrich) plus 10% bovine fetal serum for 24 h. […] The effect of these drugs on cell proliferation was determined in 96-well plates by the MTT (3-[4,5-dimethyl-thiazol-2-yl]-2,5-diphenyltetrazolium bromide) assay. The viability of cancer cells was > 95% after treatment with drugs.

Row | SMILES | inhibition at 10 µM (HeLa cells [1]) [%] | Net State 3 oxygen consumption rate (Rat Heart Mitochondria; 10 μM MA) | Pseudo State 4 oxygen consumption rate (Rat Heart Mitochondria; 10 μM MA) | RC (Rat Heart Mitochondria; 10 μM MA) | State 3 oxygen consumption rate (Rat Heart Mitochondria; 10 μM MA) | State 4 oxygen consumption rate (Rat Heart Mitochondria; 10 μM MA) | Net State 3 oxygen consumption rate (Rat Heart Mitochondria; 50 μM MA) | Pseudo State 4 oxygen consumption rate (Rat Heart Mitochondria; 50 μM MA) | RC (Rat Heart Mitochondria; 50 μM MA) | State 3 oxygen consumption rate (Rat Heart Mitochondria; 50 μM MA) | State 4 oxygen consumption rate (Rat Heart Mitochondria; 50 μM MA) | ROS production rate (HeLa cells [2]) | total ROS levels after 2 h measurement (HeLa cells [2]) | mitophagy (MTG mitochondria/LTR lysosomes co-localization) (HeLa cells [3]) | IC50 (Glioblastoma U373 cells; Glioblastoma U373, 24 h, read-out: IC50 for proliferation cell rate) [nM] | TI ratio (3T3/ cancer cells) (Glioblastoma U373 cells; IC50 3T3 / IC50 U373) | TI ratio (H9C2/cancer cells) (Glioblastoma U373 cells; IC50 H9C2 / IC50 U373)
1 | Cc1ccc(Cl)c(Nc2ccccc2C(=O)O)c1Cl [MA, Meclofenamic acid] | 65 | 48 ± 83 | 143 ± 42 (3) | 1.4 ±0.6 (3) | 177 ± 56 (3) | 126 ± 16 (3) | 12.5± 22 | 134 ± 9.5 (3) | 1 (3) | 139 ± 22 (3) | 139 ± 22 (3) | – | – | – | – | – | –
2 | CC(=O)OC[C@H]1O[C@@H]([S-])[C@H](OC(C)=O)[C@@H](OC(C)=O)[C@@H]1OC(C)=O.CCP(CC)CC.[Au+] [Aur, [1-(thio-κS)-β-D-glucopyranose-2,3,4,6-tetraacetyl] (triethylphosphine)-gold] | – | – | – | – | – | – | – | – | – | – | – | did not bring about increments | did not bring about increments | significant enhancement | 600 ± 100 | 70 | 130
